The source made the active and inactive calls.
What was measured:
[1] = target: Melanocortin receptor 4 (Homo sapiens, UniProt P32245); type: functional, cell-based;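 note: Cell-based assay with luminescence read-out, confirmatory dose-response testing for agonist activity of biased ligands at MC4R; human U2OS cells with tagged receptor and beta-arrestin; potency of agonists that increase receptor coupling to beta-arrestin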
[2] = viability loss in HEK293T cells – cell-based, cherry-picks, cytotoxicity control for HIV Vif inhibitor project, dose response (AID 652208); type: functional
[3] = T. cruzi growth inhibition in host cells, dose response, cell-based, plate reader, dry powder, set 2 (AID 652275); type: functional
[4] = target: T1, Fatty acid synthase (Homo sapiens, UniProt P49327); assay: inhibition of human FAS-TE enzyme activity – biochemical, endpoint fluorescence intensity, uHTS hits, dose response (AID 624327); type: functional;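 note: fluorescence from hydrolysis of an O-methyl fluorescein acyl ester substrate by the enzyme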
[5] = target: Albumin (Bos taurus, UniProt P02769); assay: Counterscreen for inhibitors of T-cell receptor (TCR)-CD3 interaction: Fluorescence-based biochemical high throughput dose response assay to identify inhibitors of T-cell receptor (TCR)-CD3 interaction using a TAMRA-labeled BSA probe.; type: functional
[6] = target: T1, Fatty acid synthase; assay: inhibition of human FAS-TE enzyme activity – biochemical, kinetic fluorescence intensity, dose response (AID 624326); type: functional;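 note: rate of fluorescence rise from hydrolysis of a fluorogenic O-methyl fluorescein ester substrate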
[7] = target: Paired box protein Pax-8 (Homo sapiens, UniProt Q06710); assay: PAX8 transcriptional activity inhibition in RMG-I – RMG-I cells, luciferase, cherry-pick, dose response (AID 687027); type: functional, cell-based;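 note: luciferase reporter driven by Pax8 target thyroperoxidase promoter measured by SteadyGlo luminescence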
[8] = OVCAR8 cell viability loss – plate reader, dry powder samples, PAX8 project, dose response (AID 743197); type: functional, cell-based; conditions: OVCAR-8
[9] = IGROV1 cell killing – plate reader, dry powder samples, PAX8 inhibitor project, dose response (AID 743043); type: functional, cell-based; conditions: IGROV-1
[10] = CMV-driven luciferase expression suppression in HEK293 – cell-based, luminescence, dry powder, counter-screen for Pax8 inhibitor project, dose response (AID 743020); type: functional
[11] = OVCAR-3 cell viability loss – plate reader, dry powder samples, PAX8 inhibitor project, dose response (AID 743044); type: functional, cell-based
[12] = general mammalian cell viability loss – activator set, cherry-pick, cytotoxicity control for miR-122 modulator project, dose response (AID 720690); type: functional, cell-based;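 note: HEK293T human cells scored for general mammalian cytotoxicity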
[13] = activation of miR-122 Renilla sensor silencing – cell-based, Huh7 psiCHECK-miR122, Renilla luciferase, cherry-picked, dose response (AID 651956); type: functional;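 note: huh7 hepatoma cells stably carrying a psiCHECK-2 miR-122 sensor plasmid; renilla luciferase signal reporting endogenous miR-122 activity after 48 h compound exposure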
[14] = target: Beta-galactosidase (Escherichia coli, UniProt Q8VNN2); assay: Dose response counterscreen for EBI2 assay utilizing the enzyme, b-galactosidase.; type: functional
[15] = target: Fructose-bisphosphate aldolase (Mycobacterium tuberculosis, UniProt P9WQA3); assay: Fluorescence-based biochemical high throughput dose response assay for inhibitors of the fructose-bisphosphate aldolase (FBA) of M. tuberculosis.; type: functional
[16] = loss of viability in HeLa cells – cell-based, ATP luminescence, dry powder, cytotoxicity control, dose response (AID 652117); type: functional
[17] = target: Protein disulfide-isomerase (Homo sapiens, UniProt P07237); assay: inhibition of PDI-mediated insulin reduction – biochemical, turbidity, dry powder samples, set 2, confirmation (AID 652146)
[18] = general mammalian cell viability loss – inhibitor set, cherry-pick, set 2, cytotoxicity control for miR-122 modulator project, dose response (AID 720697); type: functional, cell-based
[19] = inhibition of bursicon-driven LGR2 cAMP signaling – cell-based, HEK293, CRE-luciferase reporter, cherry pick, dose response (AID 743342); type: functional

Chain of Paired box protein Pax-8 (Q06710 whole entry): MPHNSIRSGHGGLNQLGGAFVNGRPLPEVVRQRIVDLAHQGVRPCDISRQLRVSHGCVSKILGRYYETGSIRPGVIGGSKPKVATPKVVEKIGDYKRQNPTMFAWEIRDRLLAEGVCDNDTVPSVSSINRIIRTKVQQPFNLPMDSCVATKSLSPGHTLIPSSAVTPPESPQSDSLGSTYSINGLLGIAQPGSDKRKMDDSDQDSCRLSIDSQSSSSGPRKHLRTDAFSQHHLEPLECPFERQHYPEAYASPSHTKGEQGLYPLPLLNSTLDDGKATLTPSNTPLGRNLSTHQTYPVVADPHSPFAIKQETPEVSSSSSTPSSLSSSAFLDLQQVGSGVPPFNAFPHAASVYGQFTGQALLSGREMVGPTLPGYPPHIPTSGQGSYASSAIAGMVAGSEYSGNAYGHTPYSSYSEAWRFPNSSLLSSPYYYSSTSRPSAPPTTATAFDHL
T1 sequence (P49327 whole entry): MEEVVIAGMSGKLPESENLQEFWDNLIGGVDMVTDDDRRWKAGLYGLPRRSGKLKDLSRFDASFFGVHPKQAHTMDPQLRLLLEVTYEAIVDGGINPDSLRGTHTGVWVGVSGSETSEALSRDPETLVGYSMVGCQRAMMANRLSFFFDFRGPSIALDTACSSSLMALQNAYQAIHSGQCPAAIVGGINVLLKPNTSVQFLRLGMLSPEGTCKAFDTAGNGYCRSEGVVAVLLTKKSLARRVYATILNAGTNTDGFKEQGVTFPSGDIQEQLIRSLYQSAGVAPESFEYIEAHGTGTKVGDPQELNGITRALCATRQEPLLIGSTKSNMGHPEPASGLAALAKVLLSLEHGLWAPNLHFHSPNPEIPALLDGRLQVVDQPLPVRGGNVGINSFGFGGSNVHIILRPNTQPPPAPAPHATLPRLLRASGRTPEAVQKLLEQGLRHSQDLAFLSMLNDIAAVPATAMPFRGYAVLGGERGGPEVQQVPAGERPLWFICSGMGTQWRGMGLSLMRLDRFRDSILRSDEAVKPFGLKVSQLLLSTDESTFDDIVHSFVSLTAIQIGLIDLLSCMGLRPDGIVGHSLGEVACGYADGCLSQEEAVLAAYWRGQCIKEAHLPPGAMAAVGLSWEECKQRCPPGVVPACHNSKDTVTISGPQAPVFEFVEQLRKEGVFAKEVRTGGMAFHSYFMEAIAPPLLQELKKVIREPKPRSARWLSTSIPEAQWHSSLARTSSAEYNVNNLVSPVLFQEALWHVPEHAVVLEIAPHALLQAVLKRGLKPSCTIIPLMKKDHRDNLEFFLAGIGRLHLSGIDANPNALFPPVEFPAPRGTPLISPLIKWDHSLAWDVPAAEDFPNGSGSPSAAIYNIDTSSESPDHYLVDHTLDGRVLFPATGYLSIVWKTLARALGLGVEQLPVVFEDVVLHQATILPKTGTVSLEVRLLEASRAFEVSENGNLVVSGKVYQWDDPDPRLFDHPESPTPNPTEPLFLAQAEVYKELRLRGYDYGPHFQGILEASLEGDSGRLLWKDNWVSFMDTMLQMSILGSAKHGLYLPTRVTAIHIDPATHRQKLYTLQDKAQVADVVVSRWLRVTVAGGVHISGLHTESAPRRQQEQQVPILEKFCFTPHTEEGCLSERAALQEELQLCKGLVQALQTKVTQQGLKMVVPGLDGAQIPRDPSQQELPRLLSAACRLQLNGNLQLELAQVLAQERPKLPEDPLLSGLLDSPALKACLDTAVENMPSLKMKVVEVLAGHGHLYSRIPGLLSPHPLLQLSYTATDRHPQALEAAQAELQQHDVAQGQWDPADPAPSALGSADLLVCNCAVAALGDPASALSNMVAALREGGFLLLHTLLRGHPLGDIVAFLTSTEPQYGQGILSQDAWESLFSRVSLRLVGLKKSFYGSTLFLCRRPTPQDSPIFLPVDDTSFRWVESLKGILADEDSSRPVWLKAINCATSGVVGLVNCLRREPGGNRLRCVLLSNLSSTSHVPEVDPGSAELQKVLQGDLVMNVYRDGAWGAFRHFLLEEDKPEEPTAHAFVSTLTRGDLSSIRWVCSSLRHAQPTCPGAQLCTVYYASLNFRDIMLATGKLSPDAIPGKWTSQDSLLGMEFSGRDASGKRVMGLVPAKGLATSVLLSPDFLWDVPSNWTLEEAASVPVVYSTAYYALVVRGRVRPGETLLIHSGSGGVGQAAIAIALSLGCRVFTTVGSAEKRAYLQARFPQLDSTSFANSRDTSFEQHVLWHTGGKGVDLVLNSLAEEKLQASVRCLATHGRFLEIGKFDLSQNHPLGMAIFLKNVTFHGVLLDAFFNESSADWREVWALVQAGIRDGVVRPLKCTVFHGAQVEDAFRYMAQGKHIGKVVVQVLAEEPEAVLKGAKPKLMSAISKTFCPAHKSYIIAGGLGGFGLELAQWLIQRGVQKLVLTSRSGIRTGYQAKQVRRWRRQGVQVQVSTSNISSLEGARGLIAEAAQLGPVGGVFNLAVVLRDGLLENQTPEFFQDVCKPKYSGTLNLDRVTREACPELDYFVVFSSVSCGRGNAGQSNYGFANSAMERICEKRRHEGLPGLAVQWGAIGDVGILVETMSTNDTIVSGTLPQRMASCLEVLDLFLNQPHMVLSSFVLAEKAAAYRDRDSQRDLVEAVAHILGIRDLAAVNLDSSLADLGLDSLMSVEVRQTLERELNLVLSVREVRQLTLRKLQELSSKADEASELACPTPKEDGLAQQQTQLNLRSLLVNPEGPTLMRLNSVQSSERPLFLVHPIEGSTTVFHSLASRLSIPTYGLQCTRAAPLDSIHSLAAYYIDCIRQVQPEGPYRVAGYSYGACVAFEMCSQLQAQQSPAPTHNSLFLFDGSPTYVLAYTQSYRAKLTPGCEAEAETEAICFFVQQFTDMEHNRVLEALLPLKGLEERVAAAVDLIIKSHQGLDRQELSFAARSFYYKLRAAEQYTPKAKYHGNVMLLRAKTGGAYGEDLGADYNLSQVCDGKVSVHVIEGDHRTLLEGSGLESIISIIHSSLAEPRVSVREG
Chain of Melanocortin receptor 4 (P32245 whole entry): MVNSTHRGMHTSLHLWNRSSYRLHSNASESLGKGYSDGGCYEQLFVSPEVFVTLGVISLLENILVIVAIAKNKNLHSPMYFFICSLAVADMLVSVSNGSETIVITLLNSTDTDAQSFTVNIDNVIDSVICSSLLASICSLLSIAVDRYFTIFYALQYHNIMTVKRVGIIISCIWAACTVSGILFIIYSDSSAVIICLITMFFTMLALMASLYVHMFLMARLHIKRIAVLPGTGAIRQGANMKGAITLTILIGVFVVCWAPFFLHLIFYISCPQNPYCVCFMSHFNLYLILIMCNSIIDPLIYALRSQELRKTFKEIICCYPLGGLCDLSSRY
Chain of Protein disulfide-isomerase (P07237 whole entry): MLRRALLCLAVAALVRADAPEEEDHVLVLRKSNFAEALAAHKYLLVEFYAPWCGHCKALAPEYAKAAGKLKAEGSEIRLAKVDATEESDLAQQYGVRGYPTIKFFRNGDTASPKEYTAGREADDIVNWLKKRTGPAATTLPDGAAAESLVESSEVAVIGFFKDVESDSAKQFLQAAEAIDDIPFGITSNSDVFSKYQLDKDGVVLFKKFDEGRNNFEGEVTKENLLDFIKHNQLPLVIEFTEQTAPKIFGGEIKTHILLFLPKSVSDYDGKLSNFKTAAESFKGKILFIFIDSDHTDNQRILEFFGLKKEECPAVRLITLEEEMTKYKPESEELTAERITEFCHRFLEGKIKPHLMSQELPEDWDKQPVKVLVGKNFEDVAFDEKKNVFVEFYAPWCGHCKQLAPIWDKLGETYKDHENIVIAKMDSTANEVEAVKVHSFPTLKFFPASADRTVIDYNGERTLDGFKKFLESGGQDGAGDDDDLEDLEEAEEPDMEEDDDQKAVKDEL
Chain of Beta-galactosidase (Q8VNN2 whole entry): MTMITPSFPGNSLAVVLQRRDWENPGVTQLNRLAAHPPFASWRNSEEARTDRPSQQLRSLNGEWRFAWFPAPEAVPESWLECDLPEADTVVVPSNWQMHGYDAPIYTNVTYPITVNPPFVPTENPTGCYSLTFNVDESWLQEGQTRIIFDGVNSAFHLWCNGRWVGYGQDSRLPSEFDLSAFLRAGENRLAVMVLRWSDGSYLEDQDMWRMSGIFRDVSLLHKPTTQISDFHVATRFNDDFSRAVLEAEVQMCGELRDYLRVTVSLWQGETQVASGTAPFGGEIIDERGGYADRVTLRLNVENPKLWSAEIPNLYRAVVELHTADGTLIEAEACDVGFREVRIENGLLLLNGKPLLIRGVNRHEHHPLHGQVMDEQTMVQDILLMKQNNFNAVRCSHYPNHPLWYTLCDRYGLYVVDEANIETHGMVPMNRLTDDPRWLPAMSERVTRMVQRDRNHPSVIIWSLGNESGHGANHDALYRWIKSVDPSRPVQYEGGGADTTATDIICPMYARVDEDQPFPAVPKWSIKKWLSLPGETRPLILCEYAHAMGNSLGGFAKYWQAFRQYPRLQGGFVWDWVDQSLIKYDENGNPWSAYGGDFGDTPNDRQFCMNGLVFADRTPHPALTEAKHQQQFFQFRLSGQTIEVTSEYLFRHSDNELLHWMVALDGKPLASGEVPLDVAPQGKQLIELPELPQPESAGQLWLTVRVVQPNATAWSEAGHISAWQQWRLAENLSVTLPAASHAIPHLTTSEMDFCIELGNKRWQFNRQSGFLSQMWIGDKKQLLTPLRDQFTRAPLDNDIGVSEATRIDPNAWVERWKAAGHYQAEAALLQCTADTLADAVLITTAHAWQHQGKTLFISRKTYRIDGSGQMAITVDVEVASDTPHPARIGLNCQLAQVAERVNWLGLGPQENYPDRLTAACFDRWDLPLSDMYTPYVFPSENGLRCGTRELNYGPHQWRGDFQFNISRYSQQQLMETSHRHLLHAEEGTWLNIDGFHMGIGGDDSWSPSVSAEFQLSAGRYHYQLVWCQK

With `NC(CCc1ccccc1)c1csc(Nc2ccc(C(=O)c3ccccc3)cc2)n1` (stereo not given) the EC50 [1] was > 89.2 µM (inactive) and the AC50 [2] was 27.7 µM (active).

In the case of `CC(C)N1CC2(CN(Cc3ccccc3Cl)C2)Oc2c(NC(=O)c3ccncc3)cccc2C1=O`, the AC50 [3] is reported as 0.463 µM (active).

In the case of `COc1cc([N+](=O)[O-])cc(/C=N/NC(=O)c2cc(C)nc3ccccc23)c1O`, the IC50 [4] is reported as 15.5 µM (active), the IC50 [5] is reported as > 94.1 µM (inactive) and the IC50 [6] is reported as 11.7 µM (active).

For `C[C@H]1CCCCO[C@H](CN(C)C(=O)c2ccccc2)[C@@H](C)CN([C@@H](C)CO)C(=O)c2cc(NC(=O)Nc3ccc(C(F)(F)F)cc3)ccc2O1`, the AC50 [7] was 9.48 µM (active), the AC50 [8] was 47.8 µM (active) and the AC50 [9] was 37.6 µM (active). For the same compound, the AC50 [10] was 30.1 µM (active) and the AC50 [11] was 29.5 µM (active).

For `CNC[C@@H]1Oc2cc(C#CC3CCCCC3)ccc2S(=O)(=O)N([C@@H](C)CO)C[C@@H]1C`, the AC50 [7] was 25.3 µM (active), the AC50 [12] was 19.4 µM (active) and the AC50 [13] was 1.39 µM (active).

For `COc1cccc(C(=O)N2CCN(C(=O)COc3ccc4ccccc4c3)CC2)c1`, the IC50 [14] was > 80 µM (inactive).

With `COc1ccc2nc(C)cc(C(=O)O)c2c1` the IC50 [15] was 1.16 µM (active).

With `CCOC(=O)C1(CCOc2ccccc2)CCN(Cc2cccc(Cl)c2)CC1` the AC50 [16] was 32.3 µM (active) and the AC50 [17] was > 30 µM (inactive).

In the case of `CN1C(=O)c2cc(NC(=O)c3cccs3)ccc2OC[C@H]2O[C@@H](CC(=O)N3CCCCC3)CC[C@H]21`, the AC50 [18] is reported as 9.9 µM (active).

For `C[C@H]1CCCCO[C@H](CN(C)C(=O)Nc2cccc3ccccc23)[C@@H](C)CN([C@@H](C)CO)C(=O)c2cc(NS(=O)(=O)c3cn(C)cn3)ccc2O1`, the AC50 [19] was 47 µM (active).

Reference: ChEMBL document CHEMBL1201862, “PubChem BioAssay data set” (2004)
